Measurements from ChEMBL document CHEMBL3046237, “Efficacy of methyl nonyl ketone as an in-soil repellent for common voles (Microtus arvalis)” (2013).
The source made the active and inactive calls. The calls are words filed in the database; no cut-off is given here.

Tests used:
[1] = test system: Microtus arvalis; assay: In-soil repellent activity against Microtus arvalis (Common vole) in forage grassland assessed as decrease in number of active burrow entrances at 3.97% ai applied as foam in field measured after 6 days of treatment (reference value: 48 +/-12%); format: functional
[2] = test system: Microtus arvalis; assay: In-soil repellent activity against Microtus arvalis (Common vole) in forage grassland assessed as decrease in number of active burrow entrances at 3.97% ai applied as foam in field measured after 4-5 days of treatment; format: functional, organism-based
[3] = test system: Microtus arvalis; assay: In-soil repellent activity against Microtus arvalis (Common vole) in forage grassland assessed as decrease in number of active burrow entrances at 3.97% ai applied as foam in field for 3 days measured on day 10; format: functional, organism-based
[4] = test system: Microtus arvalis; assay: In-soil repellent activity against Microtus arvalis (Common vole) in forage grassland assessed as decrease in number of active burrow entrances at 3.97% ai applied as foam in field for 3 days measured on day 7; format: functional, organism-based
[5] = test system: Microtus arvalis; assay: In-soil repellent activity against Microtus arvalis (Common vole) in forage grassland assessed as decrease in number of active burrow entrances at 3.97% ai applied as foam in field measured after 6 days of treatment relative to untreated control; format: functional
[6] = test system: Microtus arvalis; assay: In-soil repellent activity against Microtus arvalis (Common vole) in forage grassland assessed as decrease in number of active burrow entrances at 3.97% ai applied as foam in field for first 3 days and reapplied on day 10 measured at 24 hr after last drug dosage; format: functional, organism-based
[7] = test system: Microtus arvalis; assay: In-soil repellent activity against Microtus arvalis (Common vole) in forage grassland assessed as decrease in number of active burrow entrances at 3.97% ai applied as foam in field for first 3 days and reapplied on day 10 measured on day 14; format: functional, organism-based
[8] = test system: Microtus arvalis; assay: In-soil repellent activity against Microtus arvalis (Common vole) in forage grassland assessed as decrease in number of active burrow entrances at 3.97% ai applied as foam in field measured after 24 hr relative to control; format: functional
[9] = test system: Microtus arvalis; assay: In-soil repellent activity against Microtus arvalis (Common vole) in forage grassland assessed as decrease in number of active burrow entrances at 3.97% ai applied as foam in field measured after 3 days of treatment; format: functional, organism-based
[10] = test system: Microtus arvalis; assay: Decrease in reopening of compound treated burrow entrances in forage grassland by Microtus arvalis (Common vole) assessed as increase in number of new burrow entrances at 3.97% ai applied as foam in field (reference value: 41 +/-21.1%); format: functional; parameters: scale not given: the % may be the effect or the level left
[11] = test system: Microtus arvalis; assay: In-soil repellent activity against Microtus arvalis (Common vole) in forage grassland assessed as decrease in number of active burrow entrances at 3.97% ai applied as foam in field measured after 48 hr relative to control; format: functional
[12] = test system: Microtus arvalis; assay: Decrease in reopening of compound treated burrow entrances in forage grassland by Microtus arvalis (Common vole) assessed as increase in number of new burrow entrances at 3.97% ai applied as foam in field measured after 5 days of treatment (reference value: 40 +/-19.4%); format: functional; parameters: scale not given: the % may be the effect or the level left

## CCCCCCCCCC(C)=O [METHYL NONYL KETONE]
[1]
  inhibition (INH): 92%
[2]
  inhibition: Active
[3]
  inhibition: inactive
[4]
  inhibition: Active
[5]
  fold change (FC): 2
[6]
  inhibition: Active
[7]
  inhibition: Active
[8]
  fold change (FC): 3
[9]
  inhibition: Active
[10]
  Activity: 73%
[11]
  fold change (FC): 2
[12]
  Activity: 95%
